From patent US20260215426A1, “HERBICIDAL COMPOSITIONS” (SYNGENTA CROP PROTECTION AG, priority 2022, published 2026)

Key:
Type in all cases: in vivo
[1] = test system: Echinochloa crus-galli (ECHCG); assay: Post-emergence glasshouse efficacy against Echinochloa crus-galli; conditions: 4 true leaves, 14 days
Excerpt: (§1) When active ingredients are combined, the activity to be expected (E) for any given active ingredient combination obeys the so-called Colby Formula and can be calculated as follows (Colby, S. R., Calculating synergistic and antagonistic responses of herbicide combination, Weeds, Vol. 15, pages 20-22; 1967): • ppm=milligrams of active ingredient (a.i.) per liter • X=% action by first active ingredient using p ppm of the active ingredient • Y=% action by second active ingredient sing q ppm of the active ingredient.
(§2) According to Colby, the expected action of active ingredients A+B using p+q ppm of active ingredient is represented by the following formula: […]
(§3) If the action actually observed (O) is greater than the expected action E then the action of the combination is super-additive, i.e. there is a synergistic effect. In mathematical terms, synergism corresponds to a positive value for the difference of (O-E). In the case of purely complementary addition of activities (expected activity), said difference (O-E) is zero. A negative value of said difference (O-E) signals a loss of activity compared to the expected activity.
(§4) Seeds of a variety of test species are sown in standard soil in pots (Echinochloa crus-galli (ECHCG), Conyza canadensis (ERICA), Amaranthus palmeri (AMAPA), Alopecurus myosuroides (ALOMY), Lolium perenne (LOLPE), and Setaria faberi (SETFA)), and cultivated under controlled conditions in a glasshouse (at 24/16° C., day/night; 14 hours light; 65% humidity), the plants are sprayed with an aqueous spray solution derived from the dissolution of the test compound or composition in acetone and IF50 (11.12% Emulsogen EL360 TM+44.44% N-methylpyrrolidone+44.44% Dowanol DPM glycol ether) which was then diluted to the required concentration using 0.2% Genapol XO80 (CAS No. 9043-30-5) in water as the diluent. Test compounds or compositions are applied at the rates stated. The test plants are then grown in a glasshouse under controlled conditions in a glasshouse (at 24/16° C., day/night; 14 hours light; 65% humidity) and watered twice daily. After 14 days, the test is evaluated for the percentage damage caused to the plant (100=total damage to plant; 0=no damage to plant), and the result are shown below in table B1 to B6.

[2] = test system: Conyza canadensis (ERICA); assay: Post-emergence glasshouse efficacy against Conyza canadensis; conditions: 8 cm rosette, 14 days
Excerpt: as §1, §2, §3, §4

[3] = test system: Amaranthus palmeri (AMAPA); assay: Post-emergence glasshouse efficacy against Amaranthus palmeri; conditions: 7-8 true leaves, 14 days
Excerpt: as §1, §2, §3, §4

[4] = test system: Alopecurus myosuroides (ALOMY); assay: Post-emergence glasshouse efficacy against Alopecurus myosuroides; conditions: 14 days
Excerpt: as §1, §2, §3, §4

Lolium perenne (LOLPE) = assay: Post-emergence glasshouse efficacy against Lolium perenne; conditions: 14 days
Excerpt: as §1, §2, §3, §4

Setaria faberi (SETFA) = assay: Post-emergence glasshouse efficacy against Setaria faberi; conditions: 14 days, alone 3.75 g/Ha
Excerpt: as §1, §2
as §3, with “activity. […]” for “activity.”

CCOC(=O)C1(C)CC(c2cc(-n3c(=O)cc(C(F)(F)F)n(C)c3=O)c(F)cc2Cl)=NO1 (stereo not drawn) [Compound (Ia)]
inhibition at 1.875 g/ha ([1]; Echinochloa crus-galli, 336 h, alone 1.875 g/Ha, read-out: Observed Activity (%)): 6.7% | inhibition at 3.75 g/ha ([1]; Echinochloa crus-galli, 336 h, alone 3.75 g/Ha, read-out: Observed Activity (%)): 29.3% | inhibition at 7.5 g/ha ([1]; Echinochloa crus-galli, 336 h, alone 7.5 g/Ha, read-out: Observed Activity (%)): 73.3% | inhibition at 1.875 g/ha ([2]; Erigeron canadensis, 336 h, alone 1.875 g/Ha, read-out: Observed Activity (%)): 20% | inhibition at 3.75 g/ha ([2]; Erigeron canadensis, 336 h, alone 3.75 g/Ha, read-out: Observed Activity (%)): 21.7% | inhibition at 7.5 g/ha ([2]; Erigeron canadensis, 336 h, alone 7.5 g/Ha, read-out: Observed Activity (%)): 48.3% | inhibition at 0.9375 g/ha ([3]; Amaranthus palmeri, 336 h, alone 0.9375 g/Ha, read-out: Observed Activity (%)): 0% | inhibition at 1.875 g/ha ([3]; Amaranthus palmeri, 336 h, alone 1.875 g/Ha, read-out: Observed Activity (%)): 0% | inhibition at 3.75 g/ha ([3]; Amaranthus palmeri, 336 h, alone 3.75 g/Ha, read-out: Observed Activity (%)): 36.7% | inhibition at 30 g/ha ([4]; Alopecurus myosuroides, 336 h, alone 30.0 g/Ha, read-out: Observed Activity (%)): 67.5% | inhibition at 60 g/ha ([4]; Alopecurus myosuroides, 336 h, alone 60.0 g/Ha, read-out: Observed Activity (%)): 97.5% | inhibition at 3.75 g/ha (Lolium perenne (LOLPE); Lolium perenne, 336 h, alone 3.75 g/Ha, read-out: Observed Activity (%)): 12.5% | inhibition at 7.5 g/ha (Lolium perenne (LOLPE); Lolium perenne, 336 h, alone 7.5 g/Ha, read-out: Observed Activity (%)): 42.5% | inhibition at 15 g/ha (Lolium perenne (LOLPE); Lolium perenne, 336 h, alone 15.0 g/Ha, read-out: Observed Activity (%)): 50% | inhibition at 30 g/ha (Lolium perenne (LOLPE); Lolium perenne, 336 h, alone 30.0 g/Ha, read-out: Observed Activity (%)): 93.5% | inhibition at 3.75 g/ha (Setaria faberi (SETFA); Setaria faberi, 336 h, read-out: Observed Activity (%)): 67.5%

bicyclopyrone
Observed Activity (%) ([1]; alone 3.75 g/Ha): 21.7% | Observed Activity (%) ([1]; alone 7.5 g/Ha): 46.7% | Observed Activity (%) ([1]; alone 15.0 g/Ha): 56.7% | Observed Activity (%) ([1]; alone 30.0 g/Ha): 61.7% | Observed Activity (%) ([1]; alone 60.0 g/Ha): 63.3% | Observed Activity (%) ([2]; alone 15.0 g/Ha): 65.0% | Observed Activity (%) ([2]; alone 30.0 g/Ha): 71.7% | Observed Activity (%) ([2]; alone 60.0 g/Ha): 70.0% | Observed Activity (%) ([3]; alone 3.75 g/Ha): 0.0% | Observed Activity (%) ([3]; alone 7.5 g/Ha): 30.0% | Observed Activity (%) ([3]; alone 15.0 g/Ha): 45.0% | Observed Activity (%) ([3]; alone 30.0 g/Ha): 18.3% | Observed Activity (%) ([4]; alone 7.5 g/Ha): 47.5% | Observed Activity (%) ([4]; alone 15.0 g/Ha): 60.0% | Observed Activity (%) ([4]; alone 30.0 g/Ha): 60.0% | Observed Activity (%) (Lolium perenne (LOLPE); alone 3.75 g/Ha): 0.0% | Observed Activity (%) (Lolium perenne (LOLPE); alone 7.5 g/Ha): 10.0% | Observed Activity (%) (Lolium perenne (LOLPE); alone 15.0 g/Ha): 25.0% | Observed Activity (%) (Lolium perenne (LOLPE); alone 30.0 g/Ha): 47.5% | Observed Activity (%) (Setaria faberi (SETFA)): 22.5%
